Paper PMC10425210 (The Journal of Clinical Investigation, 2023)
Read-outs that look alike come from different tables or passages of the source.

Tested on: SHIV-SF162P3
Format: in vivo, rhesus macaques

CC(C)(C#Cc1ccc(-c2ccc(Cl)c3c(NS(C)(=O)=O)nn(CC(F)(F)F)c23)c([C@H](Cc2cc(F)cc(F)c2)NC(=O)Cn2nc(C(F)(F)F)c3c2C(F)(F)[C@@H]2C[C@H]32)n1)S(C)(=O)=O [LEN, Lenacapavir]
2: Animal number, Uninfected (LEN-dosed <target (70 nM))
69 copies per mL: Plasma SHIV RNA (animal BM55, 20 mg/kg, week 8 post challenge) | Plasma SHIV RNA (animal V229, 20 mg/kg, week 8 post challenge)
6: Animal number, Uninfected (LEN-dosed >target (70 nM))
3: Animal number, Infected (LEN-dosed <target (70 nM)) | Animal number, Infected (LEN-dosed total)
7809 copies per mL: Plasma SHIV RNA (animal BM55, 20 mg/kg, week 6 post challenge)
145.35 / 10M PBMC: Intact SHIV DNA / 10M PBMC (animal BM55, 20 mg/kg, Wk 2 post challenge)
Infected: Challenge outcome (animal BM55, 20 mg/kg) | Challenge outcome (animal V229, 20 mg/kg)
8: Animal number, Uninfected (LEN-dosed total)
62 copies per mL: Plasma SHIV RNA (animal BM55, 20 mg/kg, week 9 post challenge) | Plasma SHIV RNA (animal BM55, 20 mg/kg, week 10 post challenge) | Plasma SHIV RNA (animal BN33, 20 mg/kg, week 6 post challenge) | Plasma SHIV RNA (animal BN33, 20 mg/kg, week 7 post challenge) | Plasma SHIV RNA (animal BN33, 20 mg/kg, week 8 post challenge) | Plasma SHIV RNA (animal BN33, 20 mg/kg, week 9 post challenge) | Plasma SHIV RNA (animal BN33, 20 mg/kg, week 10 post challenge) | Plasma SHIV RNA (animal CP67, 75 mg/kg, week 0 post challenge) | Plasma SHIV RNA (animal CP67, 75 mg/kg, week 1 post challenge) | Plasma SHIV RNA (animal CP67, 75 mg/kg, week 2 post challenge) | Plasma SHIV RNA (animal V229, 20 mg/kg, week 9 post challenge) | Plasma SHIV RNA (animal V229, 20 mg/kg, week 10 post challenge) | Plasma SHIV RNA (animal V411, 50 mg/kg, week 0 post challenge) | Plasma SHIV RNA (animal V411, 50 mg/kg, week 1 post challenge) | Plasma SHIV RNA (animal V411, 50 mg/kg, week 2 post challenge) | Plasma SHIV RNA (animal V411, 50 mg/kg, week 3 post challenge) | Plasma SHIV RNA (animal V411, 50 mg/kg, week 4 post challenge) | Plasma SHIV RNA (animal V411, 50 mg/kg, week 5 post challenge) | Plasma SHIV RNA (animal V411, 50 mg/kg, week 6 post challenge) | Plasma SHIV RNA (animal V411, 50 mg/kg, week 7 post challenge) | Plasma SHIV RNA (animal V411, 50 mg/kg, week 8 post challenge) | Plasma SHIV RNA (animal V411, 50 mg/kg, week 9 post challenge) | Plasma SHIV RNA (animal V411, 50 mg/kg, week 10 post challenge) | Plasma SHIV RNA (animal V411, 50 mg/kg, week 11 post challenge) | Plasma SHIV RNA (animal V411, 50 mg/kg, week 12 post challenge) | Plasma SHIV RNA (animal V411, 50 mg/kg, week 13 post challenge) | Plasma SHIV RNA (animal V411, 50 mg/kg, week 14 post challenge) | Plasma SHIV RNA (animal V411, 50 mg/kg, week 15 post challenge) | Plasma SHIV RNA (animal V411, 50 mg/kg, week 16 post challenge) | Plasma SHIV RNA (animal V411, 50 mg/kg, week 17 post challenge) | Plasma SHIV RNA (animal V411, 50 mg/kg, week 18 post challenge) | Plasma SHIV RNA (animal V417, 75 mg/kg, week 0 post challenge) | Plasma SHIV RNA (animal V417, 75 mg/kg, week 1 post challenge) | Plasma SHIV RNA (animal V417, 75 mg/kg, week 2 post challenge) | Plasma SHIV RNA (animal V426, 75 mg/kg, week 0 post challenge) | Plasma SHIV RNA (animal V426, 75 mg/kg, week 1 post challenge) | Plasma SHIV RNA (animal V426, 75 mg/kg, week 2 post challenge) | Plasma SHIV RNA (animal V426, 75 mg/kg, week 3 post challenge)
4541 copies per mL: Plasma SHIV RNA (animal BM55, 20 mg/kg, week 7 post challenge)
Not infected: Challenge outcome (animal BN33, 20 mg/kg) | Challenge outcome (animal CP67, 75 mg/kg) | Challenge outcome (animal V411, 50 mg/kg) | Challenge outcome (animal V417, 75 mg/kg) | Challenge outcome (animal V426, 75 mg/kg) | Challenge outcome (animal V430, 50 mg/kg)
398.25 / 10M PBMC: Intact SHIV DNA / 10M PBMC (animal V229, 20 mg/kg, Wk 2 post challenge)
2 week after challenge: first detectable intact SHIV DNA (3 animals with confirmed viremia)
≤ 4 week after challenge: time of measurable anti-capsid (p27) antibodies (3 animals positive for SHIV by qPCR)
0: Animal number, Infected (LEN-dosed >target (70 nM))
1 / 10M PBMC: Intact SHIV DNA / 10M PBMC (animal BN33, 20 mg/kg, Wk 2 post challenge) | Intact SHIV DNA / 10M PBMC (animal BN33, 20 mg/kg, Wk 10 post challenge) | Intact SHIV DNA / 10M PBMC (animal CP67, 75 mg/kg, Wk 2 post challenge) | Intact SHIV DNA / 10M PBMC (animal CP67, 75 mg/kg, Wk 10 post challenge) | Intact SHIV DNA / 10M PBMC (animal V411, 50 mg/kg, Wk 2 post challenge) | Intact SHIV DNA / 10M PBMC (animal V411, 50 mg/kg, Wk 10 post challenge) | Intact SHIV DNA / 10M PBMC (animal V417, 75 mg/kg, Wk 2 post challenge) | Intact SHIV DNA / 10M PBMC (animal V417, 75 mg/kg, Wk 10 post challenge) | Intact SHIV DNA / 10M PBMC (animal V426, 75 mg/kg, Wk 2 post challenge) | Intact SHIV DNA / 10M PBMC (animal V426, 75 mg/kg, Wk 10 post challenge)
189 copies per mL: Plasma SHIV RNA (animal V229, 20 mg/kg, week 6 post challenge)
0 of 6: animals becoming infected (LEN exposure above the 70 nM target at challenge)
79 copies per mL: Plasma SHIV RNA (animal V229, 20 mg/kg, week 7 post challenge)
